The source of these data is the NIST ThermoML archive (doi:10.1021/je201053v).

Numbers after ± are expanded uncertainties.

For the data set the following is noted: Liquid; for mass density: 293.15 K, 101.33 kPa, Vibrating tube method.

In general, mass density refers to the mass of a sample divided by its volume. Usually vapor or sublimation pressure stands for the equilibrium pressure above the liquid or solid. Regarding `Cc1ccccc1C` [1,2-dimethylbenzene], the mass density came out at 879.68 ± 0.93 kg/m3. Further, the “vapor or sublimation pressure” value (417.58 K) is on record as 101.33 ± 1.9 kPa.
Turning to `Cc1cccc(C)c1` [1,3-dimethylbenzene], the mass density is listed as 864.11 ± 0.91 kg/m3. For the setting “412.27 K”, the “vapor or sublimation pressure” value stood at 101.33 ± 1.4 kPa.
For `Cc1ccc(C)cc1` [1,4-dimethylbenzene], the mass density is 861.21 ± 0.91 kg/m3. Also, where the note is “411.51 K”, the “vapor or sublimation pressure” value is listed as 101.33 ± 1.9 kPa.
As for `CCCCO` [butan-1-ol], the mass density was 809.5 ± 0.24 kg/m3. Where the note is “390.85 K”, the “vapor or sublimation pressure” value was 101.33 ± 1.3 kPa.
Turning to `CCc1ccccc1` [ethylbenzene], the mass density amounted to 866.54 ± 0.58 kg/m3. Also, the “vapor or sublimation pressure” value (409.27 K) came to 101.33 ± 1.3 kPa.
